Data set [1] is described as follows: Activation by rat liver microsomes (Example D). Conditions: 100 μM; 0-2.5 mg/ml microsomal protein; 37° C.; with/without NADP+. For orientation: Liver microsomes are vesicles of endoplasmic reticulum, rich in cytochrome P450 enzymes.
Procedure: Methods: The microsomal fraction was prepared from fresh, saline-perfused rat liver. Liver tissue was homogenized in three volumes (w/v) of 0.2 M KH2PO4 buffer pH 7.5, containing 2 mM MgCl2 and 1 mM EGTA. The homogenate was centrifuged at 10,000 g for 1 hour and the supernatant recovered. The supernatant fraction was then recentrifuged at 100,000 g to pellet the microsomal fraction. The pellet was resuspended in homogenization buffer and recentrifuged. This process was repeated twice to ensure complete removal of cytosolic enzyme activities. After the last centrifugation, the microsomal pellet was resuspended in homogenization buffer at a final protein concentration of about 14 mg/ml.
For 7.1, reaction mixtures (0.5 ml) consisted of 0.2 M KH2PO4 pH 7.5, 13 mM glucose-6-phosphate, 2.2 mM NADP^+, 1 unit of glucose-6-phosphate dehydrogenase, 0-2.5 mg/ml microsomal protein and 100 μM 7.1. Reactions were carried out at 37° C. Aliquots were removed from the reaction mixtures at appropriate time points, and extracted with 60% methanol.
Reactions are monitored spectrophotometrically at 340 nm. A decrease in absorbance is indicative of cofactor depletion and thus of the enzymatic oxidation of prodrug to parent compound.
Data set [2] can be described thus: Oral bioavailability by urinary excretion method (Example M). Format: in vivo. Conditions: oral gavage 20 or 40 mg/kg parent equivalents; 24 h urine vs i.v. parent ~10 mg/kg; rat. How it is done:
(§1) The oral bioavailability of prodrugs of a variety of phosphonic acid FBPase inhibitors was estimated by a urinary excretion method in rat.
Prodrugs of FBPase inhibitors were dissolved in 10% ethanol/90% polyethylene glycol (mw 400) and administered by oral gavage at doses of 20 or 40 mg/kg parent compound equivalents to 6-hour fasted, Sprague Dawley rats (220-240 g). The rats were subsequently placed in metabolic cages and urine was collected for 24 hours. The quantity of parent compound excreted into urine was determined by HPLC analysis. An ODS column eluted with a gradient from potassium phosphate buffer, pH 5.5 to acetonitrile was employed for these measurements. Detection was at 310-325 nm. […] Parent compounds were typically dissolved in dimethyl sulfoxide, and administered via the tail vein in animals that were briefly anesthetized with halothane.
Results for the FBPase inhibitor prodrugs were as follows

Data set [3] can be described thus: Tissue distribution: activation in tissue homogenates (Example T). To be noted: 100 μM; liver cytosol without microsomes. Format: in vitro ADME, rat. How it is done:
30.1 is tested for activation in homogenates from various tissues to assess the specificity of liver activation.
Methods: Rats are anaesthetized under halothane and tissues including liver, kidney, brain, heart, stomach, spleen, muscle, lung, and testis are excised and frozen in liquid nitrogen. Tissues are then homogenized in 1 to 3 volumes of 50 mM Tris/HCl, 154 mM KCl, 1 mM EGTA pH 7.4. The homogenate is centrifuged at 10,000 rpm and 4° C. for 30 minutes and the supernatant recovered. Liver cytosol is prepared by centrifuging the liver crude extract for 1 hour at 40,000 rpm and 4° C. Reaction mixtures consist of 50 mM KH2PO4 pH 7.4, 13 mM glucose-6-phosphate, 2 mM NADP^+, 10 units of glucose-6-phosphate dehydrogenase, 100 μM 30.1 and tissue homogenate at a protein concentration of 8.5 mg/ml. Reactions are incubated at 37° C. Aliquots are taken after 0 and 1 hour of incubation, and extracted with 60% methanol. The methanolic extracts are centrifuged at 14,000 rpm, and filtered prior to analysis by HPLC. The samples are loaded onto a YMC C8 column equilibrated with 0.1% TFA and eluted with a methanol gradient to 80%. Ihe activation of 30.1 to ara-AMP is monitored at […]
Results. […] Results of this nature indicate liver specific activation of 30.1.

A short description of data set [4]: Chemical stability in isotonic saline and phosphate buffer (Example A). The format is physicochemical. To be noted: room temperature. The method, then: Methods: Aliquots of a 10 μg/mL solution of 30.1 in isotonic saline and in 100 mM potassium phosphate buffers at pH 3, 7, and 9 were sampled after 1, 2, 5, and 7 days of incubation at room temperature and analyzed by HPLC. A Beckman Ultrasphere C8 column (4.6×150 mm) was employed and eluted with a gradient from 0.1% v/v trifluoroacetic acid to 80% methanol at a flow rate of 1.0 mL/min. Detection was at 254 nm. Using these conditions, the four isomers of 30.1 were readily separated and quantified. 1.3 was incubated at 100 μM in phosphate buffer at pH 7.4 and analyzed by HPLC as described in Example I following 1 hour of incubation at room temperature.
Thus, prodrugs of the invention are stable under a broad pH range.

A short description of data set [5]: Stability in plasma (Example C).
Procedure: Methods: Compounds were incubated in plasma at 37° C., and aliqouts removed at appropriate time points over the course of 5-8 hours. The aliquots were extracted with 1.5 volumes of methanol and clarified by centrifugation. Supernatants were then evaporated to dryness and the residues reconstituted with 100 μL of isoionic saline and then analyzed by reverse phase HPLC.
A short description of data set [6]: Oral bioavailability from liver ara-ATP area under the curve (Example M). Format: in vivo, rat. To be noted: for oral bioavailability: hepatic ara-ATP AUC, fasted rats. How it is done:
as §1
Methods: Fasted rats were dosed orally and intravenously with 30.1 at 3 and 10 mg/kg. Liver samples were obtained, processed, and analyzed for ara-ATP content as described in Example P.
[“Adenine Arabinoside: An Antiviral Agent” (1975) D. Pavan-Langston, Editor, Raven Press Publishers, New York].

A further data set relates to normal C57 mice. Conditions: for araATP, nmoles/g liver: day 22, 3 hours after final dosing.
The nature of data set [7]: Liver ara-ATP and ara-hypoxanthine generation after intravenous administration (Example O). The format is in vivo, rat. Conditions: for liver ara-ATP area under the curve relative to 10 mg/kg equivalent dose of ara-AMP: over 8 hours; for ara-hypoxanthine (araH) in plasma / blood: 30.1 10 and 3 mg/kg, ara-AMP 10 mg/kg; for dose excreted in the form of ara-hypoxanthine in urine: ara-AMP 10 mg/kg equivalent dose. How it is done:
The temporal profile of ara-hypoxanthine and ara-ATP generation following intravenous administration of 30.1 and free ara-AMP was compared in the rat. Method: 30.1 and ara-AMP (Sigma) were administered to normal, fasted rats intravenously (in saline) via tail vein catheters. At appropriate time points following drug a administration, animals were lightly anesthetized with halothane. The peritoneal cavity was then opened and a blood sample was obtained from the abdominal vena cava and the liver freeze-clamped and excised. The blood samples were heparinized and plasma was prepared. Plasma samples (100 μL) were mixed with 4 N perchloric acid (40 μL), vortexed, and then clarified by centrifugation. […] The eluent was monitored by UV absorbance at 254 nm. Livers were immediately homogenized in 3 volumes of 10% perchloric acid (w/w), and the extracts clarified by centrifugation at 2500×g (5 minutes). The resulting supernatants were removed and neutralized with 0.3 volumes of 3M KOH/3M KHCO3. […] Renal excretion of araH following i.v. administration of 30.1 or ara-AMP was determined as described in Example Q.

The test system of the next data set is isolated rat hepatocytes. Description: Generation of PMEApp in isolated rat hepatocytes (Example V). Format: cell-based. Conditions: Dose 250 μM; 4 h; triplicate. How it is done: Methods: Hepatocytes were prepared from fed rats and incubated as described in Example I. Test compounds were prepared in DMSO and-diluted to 250 μM in the cell suspensions. Reactions were performed in triplicate. After 4 hours of incubation, aliquots of the suspension were removed and processed as described in Example I. Quantitation of PMEApp was performed by anion exchange HPLC also as described in Example I.

Data set [8] can be described thus: Hepatic PMEA-diphosphate generation following oral administration (Example W). Format: in vivo, rat. Conditions: oral gavage 30 mg/kg PMEA equiv.; 4 h; fasted rats; n = 3. The method, then: Four hours post administration, liver samples were obtained and processed as described in Example […] was analyzed by anion exchange HPLC as described for […] in Example O.

The subject of the next data set is rat embryos in culture. To be noted: cited from earlier work.
For data set [9] the following is noted: intravenous; human patients; cited from earlier work.

Entries after “also recorded” stand apart in the source; their conditions may differ. Like-named read-outs stand apart in the source and are kept apart here.

Procedure for normal C57 mice: Death and other obvious signs of toxicity such as weight loss, tremors, ruffling fur, hunching, prostration, diarrhea, lethargy, and hyperactivity were monitored. On day 22, 3 hours following the final dosing, mice were sacrificed and livers were removed and homogenized in 3 volumes (to liver weight) of 10% perchloric acid.

Regarding `CC(C)Cn1c(-c2ccc(P3(=O)OCC(CO)CO3)o2)nc2ccc(Cl)cc21` (centres unmarked) [Compound 7.1, 6-Chloro-1-isobutyl-2-{5-[2′-(hydroxymethyl)-propan-1′,3′-yl]phosphono-2-furanyl}benzimidazole], in data set [1], the “conversion to parent compound” value is “converted to parent compound in the presence, but not in the absence of, NADP^+”. Besides, the “% OBAV Prodrug” value in data set [2] is reported as 10.9%.
Consider `Nc1ncnc2c1ncn2[C@@H]1O[C@H](COP2(=O)OCCC(c3ccncc3)O2)[C@@H](O)[C@@H]1O` (stereo partly drawn) [Compound 30.1, Adenine-9-beta-D-arabinofuranoside-5′-[1-(4-pyridyl)-1,3-propyl]monophosphate], for which, in data set [3], the “activation to ara-AMP in liver cytosol” value was “does not result in activation”. In [4] (10 μg/mL, isotonic saline and 100 mM potassium phosphate buffers pH 3, 7, 9, 7 days, HPLC), the “decomposition in saline or buffer” value was “No decomposition”. The “period for which stable” value in data set [4] (isotonic saline / 100 mM potassium phosphate buffer pH 3, 7, 9) is given as “at least seven”. Moreover, the “metabolism / degradation in fresh rat plasma” value in [5] (37° C., 5-8 hours, HPLC) is listed as “not degraded; also recorded: no evidence of metabolism”. Also, the “deamination by adenosine deaminase found in rat plasma” value in data set [5] (rat plasma) is on record as “not susceptible”. Besides, the oral bioavailability in data set [6] (3 mg/kg oral vs intravenous) is listed as 13.7%; in data set [6] (10 mg/kg oral vs intravenous) it was 17.4%. Further, the “production of the metabolite araH after oral administration” value in data set [6] (oral administration) is listed as “without production of the metabolite araH”. Further, the safety of administration entry in the data set on normal C57 mice (22 day period, doses up to 200 mg/kg/d) was “safely administered”. The figures for the “araATP, nmoles/g liver” value with normal C57 mice (Dose 20 mg/kg/d) and in the data set with normal C57 mice (Dose 200 mg/kg/d) were 6.6 ± 1.6 nmoles/g liver and 23.1 ± 9 nmoles/g liver, respectively. Moreover, the “liver ara-ATP area under the curve relative to 10 mg/kg equivalent dose of ara-AMP” value in data set [7] (30.1 3 mg/kg i.v., rat) was determined as 2.1 times higher; in [7] (30.1 10 mg/kg i.v., rat) it was 5.2 times higher. For the same compound, in data set [7] (i.v., 30.1 10 and 3 mg/kg vs araAMP 10 mg/kg), the “liver levels of araATP relative to araAMP (FIG. 1A)” value was “Significantly higher”. Besides, in [7] (i.v., rat), the “ara-hypoxanthine (araH) in plasma / blood” value was “not detected; also recorded: no ara-hypoxanthine; also recorded: failed to produce detectable amounts; also recorded: no araH (a toxic metabolite) was detected”. For the same compound, the “dose excreted in the form of ara-hypoxanthine in urine” value in data set [7] (i.v., rat) is on record as “Nor was ara-hypoxanthine detected in urine”. The “liver (araATP)/urine (araH) ratio in comparison with araAMP” value in [7] (rat) is given as “substantial shift”.
As for `Nc1ncnc2c1ncn2CCOCP1(=O)OCCC(c2cccc(Cl)c2)O1` (centres unmarked) [Compound 31.1, 9-{2-[1-(3-Chlorophenyl)1,3-propylphosphonomethoxy]ethyl}adenine], the PMEApp with isolated rat hepatocytes was found to be 52.8 ± 1.5 nmol/g. The “Hepatic PMEApp (nmoles/g/tissue)” value in [8] is reported as 11.1 ± 1.8 nmoles/g/tissue.
`C=CC(=O)c1ccccc1` [Phenyl vinyl ketone]: in the data set with rat embryos in culture, the teratogenic activity result was “lacks teratogenic activity”.
In the case of `Nc1ncnc2c1ncn2[C@@H]1O[C@H](COP(=O)(O)O)[C@@H](O)[C@@H]1O` [araAMP, reference compound], the “araATP, nmoles/g liver” value in the data set with normal C57 mice (Dose 20 mg/kg/d) worked out at 2.5 ± 0.2 nmoles/g liver; in the data set on normal C57 mice (Dose 200 mg/kg/d) it was 19.1 ± 4.0 nmoles/g liver. Further, the “ara-hypoxanthine (araH) in plasma / blood” value in [7] (i.v., rat, listed as AraAMP) was “rapidly and nearly completely converted to araH”; in [7] (i.v., rat, listed as ara-AMP), “μmolar levels”. In [7] (i.v., rat), the “dose excreted in the form of ara-hypoxanthine in urine” value was found to be 19.2%. Moreover, the “plasma half-life relative to 30.1” value in data set [7] (rat, compound not detectable in plasma) is reported as “considerably shorter”. Also, the ara-AMP in plasma result in [9] is listed as “not detected in plasma”.
